Source: patent US10202339B2, “Therapeutic compounds and compositions” (AGIOS PHARMACEUTICALS, INC., priority 2012, dated 2019)

Target: IDH2 R140Q (Homo sapiens (Human), UniProt P48735, R140Q)
Assay: IDH2 R140Q enzymatic cofactor depletion assay (diaphorase/resazurin)
Format: biochemical
Conditions: IDH2 R140Q enzyme, one hour preincubation with compound, one hour reaction; read-out: Enz R140Q
Method: The reaction was terminated by the addition of a second enzyme, diaphorase, and a corresponding substrate, resazurin. Diaphorase reduces resazurin to the highly fluorescent resorufin with the concomitant oxidation of NADPH to NADP, both halting the IDH2 reaction by depleting the available cofactor pool and facilitating quantitation of the amount of cofactor remaining after a specific time period through quantitative production of an easily detected fluorophore.
The compound was then incubated for one hour at room temperature with the enzyme; before starting the IDH2 reaction with the addition of 10 μl of substrate mix containing 50 μM NADPH and 6.3 mM α-KG in the buffer described above. After a further one hour of incubation at room temperature, the reaction was halted and the remaining NADPH measured through conversion of resazurin to resorufin by the addition of 25 μl Stop Mix (36 μg/ml diaphorase enzyme and 60 μM resazurin; in buffer). After one minute of incubation the plate was read on a plate reader at Ex544/Em590.

IDH2 R140Q, sequence (P48735 40-452 R140Q): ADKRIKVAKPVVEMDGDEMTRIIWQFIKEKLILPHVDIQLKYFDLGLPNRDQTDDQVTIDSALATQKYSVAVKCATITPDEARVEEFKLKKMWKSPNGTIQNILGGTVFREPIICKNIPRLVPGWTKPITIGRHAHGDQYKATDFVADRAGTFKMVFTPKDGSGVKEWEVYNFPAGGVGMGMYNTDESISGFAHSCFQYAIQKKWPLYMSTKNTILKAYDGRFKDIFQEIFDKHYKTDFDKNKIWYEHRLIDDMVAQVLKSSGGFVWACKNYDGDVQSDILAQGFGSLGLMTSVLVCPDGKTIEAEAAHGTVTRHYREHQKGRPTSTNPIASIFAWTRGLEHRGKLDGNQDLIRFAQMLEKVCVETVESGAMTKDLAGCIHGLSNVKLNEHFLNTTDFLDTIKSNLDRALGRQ

Row | Compound | IC50 [nM]
1 | 2-(3-(1-methyl-1H-pyrazol-5-yl)ureido)-N-(2,2,2-trifluoroethyl)-[1,1′-biphenyl]-4-sulfonamide [Compound 77] | 100 to 1000
2 | 3′-methyl-N-morpholino-2-(3-(3-(trifluoromethyl)phenyl)ureido)-[1,1′-biphenyl]-4-sulfonamide [Compound 49] | 100 to 1000
3 | O=C(Nc1ccccc1)Nc1cc(S(=O)(=O)Nc2ccccc2)ccc1-c1ccsc1 [Compound 1, N-phenyl-3-(3-phenylureido)-4-(thiophen-3-yl)benzenesulfonamide] | 100 to 1000
4 | Cc1ccccc1NC(=O)Nc1cc(S(=O)(=O)Nc2ccccc2)ccc1-c1ccsc1 [Compound 2, N-phenyl-4-(thiophen-3-yl)-3-(3-(o-tolyl)ureido)benzenesulfonamide] | 100 to 1000
5 | Cc1cccc(NC(=O)Nc2cc(S(=O)(=O)Nc3ccccc3)ccc2-c2ccsc2)c1 [Compound 3, N-phenyl-4-(thiophen-3-yl)-3-(3-(m-tolyl)ureido)benzenesulfonamide] | 100 to 1000
6 | CCc1ccccc1NC(=O)Nc1cc(S(=O)(=O)Nc2ccccc2)ccc1-c1ccsc1 [Compound 4, 3-(3-(2-ethylphenyl)ureido)-N-phenyl-4-(thiophen-3-yl)benzenesulfonamide] | 100 to 1000
7 | CCc1cccc(NC(=O)Nc2cc(S(=O)(=O)Nc3ccccc3)ccc2-c2ccsc2)c1 [Compound 5, 3-(3-(3-ethylphenyl)ureido)-N-phenyl-4-(thiophen-3-yl)benzenesulfonamide] | 100 to 1000
8 | COc1ccccc1NC(=O)Nc1cc(S(=O)(=O)Nc2ccccc2)ccc1-c1ccsc1 [Compound 6, 3-(3-(2-methoxyphenyl)ureido)-N-phenyl-4-(thiophen-3-yl)benzenesulfonamide] | 100 to 1000
9 | COc1cccc(NC(=O)Nc2cc(S(=O)(=O)Nc3ccccc3)ccc2-c2ccsc2)c1 [Compound 7, 3-(3-(3-methoxyphenyl)ureido)-N-phenyl-4-(thiophen-3-yl)benzenesulfonamide] | 100 to 1000
10 | O=C(Nc1cccc(Cl)c1)Nc1cc(S(=O)(=O)Nc2ccccc2)ccc1-c1ccsc1 [Compound 8, 3-(3-(3-chlorophenyl)ureido)-N-phenyl-4-(thiophen-3-yl)benzenesulfonamide] | 100 to 1000
11 | O=C(Nc1ccccc1F)Nc1cc(S(=O)(=O)Nc2ccccc2)ccc1-c1ccsc1 [Compound 9, 3-(3-(2-fluorophenyl)ureido)-N-phenyl-4-(thiophen-3-yl)benzenesulfonamide] | 100 to 1000
12 | O=C(Nc1cc(S(=O)(=O)Nc2ccccc2)ccc1-c1ccsc1)Nc1ccccc1C(F)(F)F [Compound 10, N-phenyl-4-(thiophen-3-yl)-3-(3-(2-(trifluoromethyl)phenyl)ureido)benzenesulfonamide] | 100 to 1000
13 | Cc1ccc(C)c(NC(=O)Nc2cc(S(=O)(=O)Nc3ccccc3)ccc2-c2ccsc2)c1 [Compound 11, 3-(3-(2,5-dimethylphenyl)ureido)-N-phenyl-4-(thiophen-3-yl)benzenesulfonamide] | 100 to 1000
14 | Cc1ccc(F)c(NC(=O)Nc2cc(S(=O)(=O)Nc3ccccc3)ccc2-c2ccsc2)c1 [Compound 12, 3-(3-(2-fluoro-5-methylphenyl)ureido)-N-phenyl-4-(thiophen-3-yl)benzenesulfonamide] | 100 to 1000
15 | O=C(Nc1ccccc1O)Nc1cc(S(=O)(=O)Nc2ccccc2)ccc1-c1ccsc1 [Compound 13] | 1000 to 10000
16 | CC(C)c1cccc(NC(=O)Nc2cc(S(=O)(=O)Nc3ccccc3)ccc2-c2ccsc2)c1 [Compound 14] | 1000 to 10000
17 | Cc1cccc(C)c1NC(=O)Nc1cc(S(=O)(=O)Nc2ccccc2)ccc1-c1ccsc1 [Compound 15] | 1000 to 10000
18 | Cc1cc(C)cc(NC(=O)Nc2cc(S(=O)(=O)Nc3ccccc3)ccc2-c2ccsc2)c1 [Compound 16] | 1000 to 10000
19 | Cc1ccc(NC(=O)Nc2cc(S(=O)(=O)Nc3ccccc3)ccc2-c2ccsc2)cc1C [Compound 17] | 1000 to 10000
20 | O=C(Nc1ccc(F)cc1)Nc1cc(S(=O)(=O)Nc2ccccc2)ccc1-c1ccsc1 [Compound 18] | 1000 to 10000
21 | O=C(Nc1ccc(F)c(Cl)c1)Nc1cc(S(=O)(=O)Nc2ccccc2)ccc1-c1ccsc1 [Compound 19] | 1000 to 10000
22 | O=C(Nc1ccc(F)c(F)c1)Nc1cc(S(=O)(=O)Nc2ccccc2)ccc1-c1ccsc1 [Compound 20] | 1000 to 10000

Row | Compound | IC50 [nM]
23 | O=C(Nc1ccc(F)c(C(F)(F)F)c1)Nc1cc(S(=O)(=O)Nc2ccccc2)ccc1-c1ccsc1 [Compound 21] | 1000 to 10000
24 | O=C(Nc1ccccn1)Nc1cc(S(=O)(=O)Nc2ccccc2)ccc1-c1ccsc1 [Compound 22] | 1000 to 10000
25 | O=C(Nc1ncco1)Nc1cc(S(=O)(=O)Nc2ccccc2)ccc1-c1ccsc1 [Compound 23] | 1000 to 10000
26 | CC1CCC(NC(=O)Nc2cc(S(=O)(=O)Nc3ccccc3)ccc2-c2ccsc2)CC1 (centres unmarked) [Compound 24] | 1000 to 10000
27 | O=C(Nc1ccccc1Cl)Nc1cc(S(=O)(=O)NC2CC2)ccc1-c1ccsc1 [Compound 25, 3-(3-(2-chlorophenyl)ureido)-N-cyclopropyl-4-(thiophen-3-yl)benzenesulfonamide] | 100 to 1000
28 | O=C(Nc1cc(Cl)cc(Cl)c1)Nc1cc(S(=O)(=O)NC2CC2)ccc1-c1ccsc1 [Compound 26] | 1000 to 10000
29 | O=C(Nc1cc(S(=O)(=O)NC2CC2)ccc1-c1ccsc1)Nc1cccc(Cl)c1Cl [Compound 27, N-cyclopropyl-3-(3-(2,3-dichlorophenyl)ureido)-4-(thiophen-3-yl)benzenesulfonamide] | 100 to 1000
30 | O=C(Nc1cc(S(=O)(=O)NC2CC2)ccc1-c1ccsc1)Nc1ccc(F)cc1C(F)(F)F [Compound 28, N-cyclopropyl-3-(3-(4-fluoro-2-(trifluoromethyl)phenyl)ureido)-4-(thiophen-3-yl)benzenesulfonamide] | 100 to 1000
31 | Cc1cncc(NC(=O)Nc2cc(S(=O)(=O)NC3CC3)ccc2-c2ccsc2)c1 [Compound 29, N-cyclopropyl-3-(3-(5-methylpyridin-3-yl)ureido)-4-(thiophen-3-yl)benzenesulfonamide] | 1000 to 10000
32 | N#CC1(NS(=O)(=O)c2ccc(-c3ccsc3)c(NC(=O)Nc3cccc(C(F)(F)F)c3)c2)CC1 [Compound 31, N-(1-cyanocyclopropyl)-4-(thiophen-3-yl)-3-(3-(3-(trifluoromethyl)phenyl)ureido)benzenesulfonamide] | < 100
33 | O=C(Nc1cccc(C(F)(F)F)c1)Nc1cc(S(=O)(=O)NC2COC2)ccc1-c1ccsc1 [Compound 32, N-(oxetan-3-yl)-4-(thiophen-3-yl)-3-(3-(3-(trifluoromethyl)phenyl)ureido)benzenesulfonamide] | < 100
34 | O=C(Nc1ccccc1F)Nc1cc(S(=O)(=O)NCC(F)(F)F)ccc1-c1ccccc1 [Compound 33, 2-(3-(2-fluorophenyl)ureido)-N-(2,2,2-trifluoroethyl)-[1,1′-biphenyl]-4-sulfonamide] | 100 to 1000
35 | O=C(Nc1ccccc1)Nc1cc(S(=O)(=O)NC2CC2)ccc1-c1ccccc1 [Compound 34, N-cyclopropyl-2-(3-phenylureido)-[1,1′-biphenyl]-4-sulfonamide] | 100 to 1000
36 | O=C(Nc1ccccc1F)Nc1cc(S(=O)(=O)NC2CC2)ccc1-c1ccccc1 [Compound 35, N-cyclopropyl-2-(3-(2-fluorophenyl)ureido)-[1,1′-biphenyl]-4-sulfonamide] | 100 to 1000
37 | O=C(Nc1cccc(C(F)(F)F)c1)Nc1cc(S(=O)(=O)NC2CC2)ccc1-c1ccccc1 [Compound 36, N-cyclopropyl-2-(3-(3-(trifluoromethyl)phenyl)ureido)-[1,1′-biphenyl]-4-sulfonamide] | 100 to 1000
38 | O=C(Nc1ccc(Cl)cc1)Nc1cc(S(=O)(=O)NCC(F)(F)F)ccc1-c1ccccc1 [Compound 37, 2-(3-(4-chlorophenyl)ureido)-N-(2,2,2-trifluoroethyl)-[1,1′-biphenyl]-4-sulfonamide] | 100 to 1000
39 | O=C(Nc1cc(F)ccc1F)Nc1cc(S(=O)(=O)NCC(F)(F)F)ccc1-c1ccccc1 [Compound 38, 2-(3-(2,5-difluorophenyl)ureido)-N-(2,2,2-trifluoroethyl)-[1,1′-biphenyl]-4-sulfonamide] | 100 to 1000
40 | O=C(Nc1ccc(F)cc1)Nc1cc(S(=O)(=O)NCC(F)(F)F)ccc1-c1ccccc1 [Compound 39, 2-(3-(4-fluorophenyl)ureido)-N-(2,2,2-trifluoroethyl)-[1,1′-biphenyl]-4-sulfonamide] | 100 to 1000
41 | O=C(Nc1ccc(F)c(Cl)c1)Nc1cc(S(=O)(=O)NCC(F)(F)F)ccc1-c1ccccc1 [Compound 40, 2-(3-(3-chloro-4-fluorophenyl)ureido)-N-(2,2,2-trifluoroethyl)-[1,1′-biphenyl]-4-sulfonamide] | 100 to 1000
42 | O=C(Nc1cc(S(=O)(=O)NCC(F)(F)F)ccc1-c1ccccc1)Nc1c(F)cccc1F [Compound 41, 2-(3-(2,6-difluorophenyl)ureido)-N-(2,2,2-trifluoroethyl)-[1,1′-biphenyl]-4-sulfonamide] | 100 to 1000
43 | O=C(Nc1ccccc1Cl)Nc1cc(S(=O)(=O)NCC(F)(F)F)ccc1-c1ccccc1 [Compound 42, 2-(3-(2-chlorophenyl)ureido)-N-(2,2,2-trifluoroethyl)-[1,1′-biphenyl]-4-sulfonamide] | 100 to 1000
44 | O=C(Nc1ccccc1OC(F)(F)F)Nc1cc(S(=O)(=O)NCC(F)(F)F)ccc1-c1ccccc1 [Compound 43, N-(2,2,2-trifluoroethyl)-2-(3-(2-(trifluoromethoxy)phenyl)ureido)-[1,1′-biphenyl]-4-sulfonamide] | 100 to 1000
